Experimental data published in US8293769B2, “CSF-1R inhibitors, compositions, and methods of use” (Novartis AG, priority 2008, dated 2012).

How the values were obtained:
[1] = target: T1, PDGFRb (Homo sapiens, UniProt P09619); test: PDGFRb kinase in vitro biochemical assay (alphascreen); settings: tested at about 1 μM; read-out: PDGF RK BETA percent inhibition
T1 construct: The kinase domain of PDGFRβ was assayed in 50 mM Hepes; purchased Invitrogen P3082
Method: (§1) The IC50 values for the inhibition of RTKs were determined in the alphascreen format measuring the inhibition by compound of phosphate transfer to a substrate by the respective enzyme. Briefly, the respective RTK domain purchased as human recombinant protein (cKIT Upstate #14-559, PDGFRb Invitrogen #P3082) were incubated with serial dilutions of compound in the presence of substrate and ATP concentrations within 3 times the Km of the enzyme.
(§2) The kinase domain of cKIT was assayed in 50 mM Hepes, pH=7.5, 5 mM MgCl2, 10 mM MnCl2, 1 mM DTT, 0.1% BSA with 0.06 uM biotinylated peptide substrate (GGLFDDPSYVNVQNL-NH2) and 15 uM ATP (ATP KM apparent=15 uM). The kinase domain of PDGFRβ was assayed in 50 mM Hepes, pH=7.5, 20 mM MgCl2, 1 mM DTT, 0.1% BSA with 0.1 uM biotinylated peptide substrate (GGLFDDPSYVNVQNL-NH2) and 10 uM ATP (ATP KM apparent=25 uM). Reactions were incubated at room temperature for 3 to 4 hr and stopped with buffer (20 mM EDTA, 0.01% Tween-20 for both PDGFRb and cKIT). Alphascreen PY20 beads were added to the stopped cKIT reactions and PY20 Ab/Protein A Alphascreen beads were added to the PDGFRβ stopped reactions. Both reactions were incubated overnight and read on the Alphascreen reader. The concentration of compound for 50% inhibition (IC50) was calculated employing non-linear regression using XL-Fit data analysis software. As a control compound, staurosporine is run in every assay and a Z′>0.5 is required to validate results.

[2] = target: T2, cytoplasmic domain of the human CSF-1R (Homo sapiens, UniProt P07333); test: In vitro kinase assay for CSF-1R (AlphaScreen); assay type: biochemical; settings: tested at about 1 μM; read-out: CSF1RK 1 percent inhibition
T2 construct: Recombinant protein corresponding to the cytoplasmic domain of the human CSF-1R; purchased Invitrogen Corporation, Carlsbad, Calif; PV3249
T2 sequence (P07333 539-972 limits assumed): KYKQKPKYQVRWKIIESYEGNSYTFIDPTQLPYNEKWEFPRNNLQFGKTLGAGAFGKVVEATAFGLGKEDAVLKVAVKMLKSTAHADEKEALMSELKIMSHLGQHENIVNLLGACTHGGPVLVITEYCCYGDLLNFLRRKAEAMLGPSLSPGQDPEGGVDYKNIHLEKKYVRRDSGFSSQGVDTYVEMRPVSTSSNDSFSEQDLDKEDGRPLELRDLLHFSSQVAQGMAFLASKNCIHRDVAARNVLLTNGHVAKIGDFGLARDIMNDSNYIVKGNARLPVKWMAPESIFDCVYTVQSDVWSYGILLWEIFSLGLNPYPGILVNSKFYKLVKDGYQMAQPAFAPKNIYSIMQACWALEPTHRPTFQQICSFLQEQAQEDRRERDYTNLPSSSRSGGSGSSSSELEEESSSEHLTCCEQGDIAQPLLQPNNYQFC
Method: The kinase activity of various protein tyrosine kinases can be measured by providing ATP and a suitable peptide or protein tyrosine-containing substrate, and assaying the transfer of phosphate moiety to the tyrosine residue. Recombinant protein corresponding to the cytoplasmic domain of the human CSF-1R was purchased from Invitrogen Corporation, Carlsbad, Calif. U.S.A. (#PV3249). For each assay, test compounds were serially diluted, starting at 25 μM with 3 fold dilutions, in DMSO in 384 well plates then mixed with an appropriate kinase reaction buffer consisting of 50 mM Hepes, 5 mM MgCl2, 10 mM MnCl2, 0.1% BSA, pH 7.5, 1.0 mM dithiothreitol, 0.01% Tween 80 plus 1 μM ATP. Kinase protein and an appropriate biotinylated peptide substrate at 50 nM were added to give a final volume of 20 μL, reactions were incubated for 2 hours at room temperature and stopped by the addition of 10 μL of 45 mM EDTA, 50 mM Hepes pH 7.5. Added to the stopped reaction mix was 30 μL of PT66 Alphascreen beads (Perkin Elmer, Boston, Mass., U.S.A.). The reaction was incubated overnight and read on the Envision (Perkin Elmer). Phosphorylated peptide product was measured with the AlphaScreen system (Perkin Elmer) using acceptor beads coated with anti-phosphotyrosine antibody PT66 and donor beads coated with streptavidin that emit a fluorescent signal at the 520-620 nm emission wave length if in close proximity. The concentration of each compound for 50% inhibition (IC50) was calculated by non-linear regression using XL Fit data analysis software.
CSF-1R kinase was assayed in 50 mM Hepes pH 7.0, 5 mM MgCl2, 10 mM MnCl2, 1 mM DTT, 1 mg/mL BSA, 1.0 μM ATP, and 0.05 μM biotin-GGGGRPRAATF-NH2 (SEQ ID NO:1) peptide substrate. CSF-1R kinase was added at final concentration of 4 nM.

[3] = target: T3, cKIT (Homo sapiens, UniProt P10721); test: cKIT kinase in vitro biochemical assay (alphascreen); settings: tested at about 1 μM; read-out: CKIT percent inhibition
T3 construct: The kinase domain of cKIT was assayed in 50 mM Hepes; purchased Upstate 14-559
T3 sequence (P10721 589-937 limits assumed): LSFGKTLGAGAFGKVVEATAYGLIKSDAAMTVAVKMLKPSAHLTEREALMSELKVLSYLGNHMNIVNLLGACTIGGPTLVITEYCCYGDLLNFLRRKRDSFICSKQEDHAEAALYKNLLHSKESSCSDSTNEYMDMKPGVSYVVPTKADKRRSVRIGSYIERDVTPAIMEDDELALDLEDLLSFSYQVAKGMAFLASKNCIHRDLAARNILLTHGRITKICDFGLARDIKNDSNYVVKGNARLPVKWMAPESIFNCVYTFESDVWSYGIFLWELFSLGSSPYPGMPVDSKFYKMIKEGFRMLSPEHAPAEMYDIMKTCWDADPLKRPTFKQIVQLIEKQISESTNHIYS
Method: as §1, §2

T1 sequence (P09619 600-962 limits assumed): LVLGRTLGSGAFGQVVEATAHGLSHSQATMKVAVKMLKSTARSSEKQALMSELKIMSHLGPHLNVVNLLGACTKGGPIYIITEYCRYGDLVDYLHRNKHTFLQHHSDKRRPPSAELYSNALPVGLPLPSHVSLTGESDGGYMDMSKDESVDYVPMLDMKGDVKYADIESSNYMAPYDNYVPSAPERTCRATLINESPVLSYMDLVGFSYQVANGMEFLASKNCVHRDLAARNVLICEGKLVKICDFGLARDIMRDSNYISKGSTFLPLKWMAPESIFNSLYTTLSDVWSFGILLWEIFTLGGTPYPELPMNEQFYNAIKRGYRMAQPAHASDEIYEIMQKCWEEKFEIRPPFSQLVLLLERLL

Structure (SMILES)	inhibition at 1 µM [1]	inhibition at 1 µM [2]	inhibition at 1 µM [3]
O[C@@H]1CCCC[C@H]1Nc1nc2ccc(Oc3cncc(-c4cscn4)c3)cc2s1 [Compound 69, (1R,2R)-2-(6-(5-(thiazol-4-yl)pyridin-3-yloxy)benzo[d]thiazol-2-ylamino) cyclohexanol]	31%	100%	97%
C[C@H](Nc1nc2ccc(Oc3ccnc(Cl)n3)cc2s1)C1CCCCC1 [Compound 36, (S)-6-(2-chloropyrimidin-4-yloxy)-N-(1-cyclohexylethyl)benzo[d]thiazol-2-amine]	0%	59%	19%
C[C@H](Nc1nc2ccc(Oc3ccc(N)nc3)cc2s1)C1CCCCC1 [Compound 100, (S)-6-(6-aminopyridin-3-yloxy)-N-(1-cyclohexylethyl)benzo[d]thiazol-2-amine]	31%	100%	90%
CC(=O)NCCNc1nccc(Oc2ccc3nc(NCC4CCCCC4)sc3c2)n1 [Compound 16, N-(2-(4-(2-(cyclohexylmethylamino)benzo[d]thiazol-6-yloxy)pyrimidin-2-ylamino)ethyl) acetamide]	35%	89%	22%
CC(=O)NCCNc1cc(Oc2ccc3nc(NCC4CCCCC4)sc3c2)ncn1 [Compound 12, N-(2-(6-(2-(cyclohexylmethylamino)benzo[d]thiazol-6-yloxy)pyrimidin-4-ylamino)ethyl) acetamide]	37%	80%	13%
CCCn1cc(-c2cncc(Oc3ccc4nc(N[C@@H]5CCCC[C@H]5O)sc4c3)c2)cn1 [Compound 58, (1R,2R)-2-(6-(5-(1-propyl-1H-pyrazol-4-yl)pyridin-3-yloxy)benzo[d]thiazol-2-ylamino)cyclohexanol]	7%	100%	86%
Cn1nccc1-c1cncc(Oc2ccc3nc(N[C@@H]4CCCC[C@H]4O)sc3c2)n1 [Compound 91, (1R,2R)-2-(6-(6-(1-methyl-1H-pyrazol-5-yl)pyrazin-2-yloxy)benzo[d]thiazol-2-ylamino) cyclohexanol]	14%	95%	21%
O[C@@H]1CCCC[C@H]1Nc1nc2ccc(Oc3cncc(-c4ncco4)c3)cc2s1 [Compound 83, (1R,2R)-2-(6-(5-(oxazol-2-yl)pyridin-3-yloxy)benzo[d]thiazol-2-ylamino) cyclohexanol]	98%	100%	86%
Nc1ccc(Oc2ccc3nc(N[C@@H]4CCCC[C@H]4O)sc3c2)nn1 [Compound 90, (1R,2R)-2-(6-(6-aminopyridazin-3-yloxy)benzo[d]thiazol-2-ylamino)cyclohexanol]	87%	28%	33%
Clc1nccc(Oc2ccc3nc(NCC4CCCCC4)sc3c2)n1 [Compound 4, 6-(2-chloropyrimidin-4-yloxy)-N-(cyclohexylmethyl) benzo[d]thiazol-2-amine]	0%	73%	23%
CN1CCN(c2ccc(-c3cncc(Oc4ccc5nc(N[C@@H]6CCCC[C@H]6O)sc5c4)c3)cn2)CC1 [Compound 62, (1R,2R)-2-(6-(6′-(4-methylpiperazin-1-yl)-3,3′-bipyridin-5-yloxy)benzo[d]thiazol-2-ylamino) cyclohexanol]	26%	100%	77%
c1nc(Oc2ccc3nc(NCC4CCCCC4)sc3c2)cc(N2CCOCC2)n1 [Compound 11, N-(cyclohexylmethyl)-6-(6-morpholinopyrimidin-4-yloxy)benzo[d]thiazol-2-amine]	13%	68%	19%
O[C@@H]1CCCC[C@H]1Nc1nc2ccc(Oc3cncc(-c4ccnc(N5CCOCC5)c4F)c3)cc2s1 [Compound 77]	6%	100%	83%
O[C@@H]1CCCC[C@H]1Nc1nc2ccc(Oc3cncc(-c4ccc(N5CCOCC5)nc4)c3)cc2s1 [Compound 72, (1R,2R)-2-(6-(6′-morpholino-3,3′-bipyridin-5-yloxy)benzo[d]thiazol-2-ylamino)cyclohexanol]	10%	100%	76%
C[C@H](Nc1nc2ccc(Oc3ccc(C#N)nc3)cc2s1)C1CCCCC1 [Compound 87, (S)-5-(2-(1-cyclohexylethylamino)benzo[d]thiazol-6-yloxy)picolinonitrile]	0%	32%	16%
Nc1ccc(-c2cc(Oc3ccc4nc(N[C@@H]5CCCC[C@H]5O)sc4c3)cnc2Cl)cn1 [Compound 104, (1R,2R)-2-(6-(6′-amino-2-chloro-3,3′-bipyridin-5-yloxy)benzo[d]thiazol-2-ylamino)cyclohexanol]	15%	86%	15%
Nc1ccc(-c2cc(Oc3ccc4nc(N[C@@H]5CCCC[C@H]5O)sc4c3)cnc2-c2ccc(N)nc2)cn1 [Compound 108, (1R,2R)-2-(6-(5,6-bis(6-amino-pyridin-3-yl)pyridin-3-yloxy)benzo[d]thiazol-2-ylamino)cyclohexanol]	23%	93%	10%
O[C@@H]1CCCC[C@H]1Nc1nc2ccc(Oc3cc(Cl)ncn3)cc2s1 [Compound 5, (1R,2R)-2-(6-(6-chloropyrimidin-4-yloxy)benzo[d]thiazol-2-ylamino) cyclohexanol]	0%	41%	25%
C[C@H](Nc1nc2ccc(Oc3cc(Cl)ncn3)cc2s1)C1CCCCC1 [Compound 35, (S)-6-(6-chloropyrimidin-4-yloxy)-N-(1-cyclohexylethyl) benzo[d]thiazol-2-amine]	2%	79%	20%
CNC(=O)c1ccc(Oc2ccc3nc(N[C@@H]4CCCC[C@H]4O)sc3c2)cn1 [Compound 54, 5-(2-((1R,2R)-2-hydroxycyclohexylamino)benzo[d]thiazol-6-yloxy)-N-methylpicolinamide]	13%	87%	56%
O[C@@H]1CCCC[C@H]1Nc1nc2ccc(Oc3ccnc(Cl)n3)cc2s1 [Compound 6, (1R,2R)-2-(6-(2-chloropyrimidin-4-yloxy)benzo[d]thiazol-2-ylamino) cyclohexanol]	0%	18%	19%
